Laboratory results taken from US6642216B2, “Isoprenoid pathway inhibitors for stimulating bone growth” (ZymoGenetics Corporation, priority 1996, dated 2003).

Assays:
BMP-2 promoter = test: ABA assay: BMP-2 promoter-luciferase reporter in 2T3-BMP-2-LUC osteoblast cells; type: cell-based, mouse
Procedure: These transformed cells are then evaluated for the production of the reporter gene product; compounds that activate the BMP promoter will drive production of the reporter protein, which can be readily assayed.
The cells were cultured using α-MEM, 10% FCS with 1% penicillin/streptomycin and 1% glutamine (“plating medium”), and were split 1:5 once per week. For the assay, the cells were resuspended in a plating medium containing 4% FCS, plated in microtiter plates at a concentration of 5×10^3 cells (in 50 μl)/well, and incubated for 24 hours at 37° C. in 5% CO2. To initiate the assay, 50 μl of the test compound or the control in DMSO was added at 2× concentration to each well, so that the final volume was 100 μl. The final serum concentration was 2% FCS, and the final DMSO concentration was 1%.
The treated cells were incubated for 24 hours at 37° C. and 5% CO2. The medium was then removed, and the cells were rinsed three times with PBS. After removal of excess PBS, 25 μl of 1× cell culture lysing reagent (Promega #E153A) was added to each well and incubated for at least ten minutes. Optionally, the plates/samples could be frozen at this point. To each well was added 50 μl of luciferase substrate (Promega #E152A; 10 ml Promega luciferase assay buffer per 7 mg Promega luciferase assay substrate). Luminescence was measured on an automated 96-well luminometer, and was expressed as either picograms of luciferase activity per well or as picograms of luciferase activity per microgram of protein.
Alternatively, the reactivity of a compound to be tested can be compared directly to a negative control containing no compound.

neonatal mouse calvaria = test: Neonatal mouse calvaria assay (in vitro bone formation); type: cell-based; design: Osteoblast Number, % increase over vehicle control / New Bone Area, % increase over vehicle control: concentration or dose not given beside the values
Procedure: Briefly, four days after birth, the front and parietal bones of ICR Swiss white mouse pups are removed by microdissection and split along the sagittal suture.
Three μm sections of the calvaria are prepared. Representative sections are selected for histomorphometric assessment of bone formation or bone resorption. Bone changes are measured on sections cut 200 μm apart. Osteoblasts and osteoclasts are identified by their distinctive morphology.
Selected compounds and appropriate controls were assayed in vitro (ex vivo) for bone formation activity (described above in “Neonatal Mouse Calvaria Assay (in vitro)”). Histomorphometrical assessments of ex vivo calvaria were carried out using an OsteoMetrics bone morphometry measurement program, according to the manufacturer's instructions. Measurements were determined using either a 10- or 20-fold objective with a standard point counting eyepiece graticule.
New bone formation was determined (using a 10× objective) by measuring the new bone area formed in one field in 3 representative sections of each bone (4 bones per group). Each measurement was carried out ½ field distance from the end of the suture. Both total bone and old bone area were measured. Data were expressed as new bone area in mm^2.
Osteoblast numbers were determined by point counting. The number of osteoblast cells lining the bone surface on both sides of the bone were counted in one field using a 20× objective. Data were expressed as osteoblast numbers/mm of bone surface.
The results were calculated as new bone area in mm^2×10^−3, as above.

[1] = test system: ICR Swiss white mice calvaria; test: In vivo murine calvarial bone growth assay; design: species or system mouse
Procedure: Male ICR Swiss white mice, aged 4-6 weeks and weighing 13-26 gm, are employed, using 4-5 mice per group. The calvarial bone growth assay is performed as described in PCT application WO 95/24211, incorporated by reference. Briefly, the test compound or appropriate control vehicle is injected into the subcutaneous tissue over the right calvaria of normal mice. Typically, the control vehicle is the vehicle in which the compound was solubilized, and is PBS containing 5% DMSO or is PBS containing Tween (2 μl/10 ml). The animals are sacrificed on day 14 and bone growth measured by histomorphometry. Bone samples for quantitation are cleaned from adjacent tissues and fixed in 10% buffered formalin for 24-48 hours, decalcified in 14% EDTA for 1-3 weeks, processed through graded alcohols; and embedded in paraffin wax. Three to five μm sections of the calvaria are prepared, and representative sections are selected for histomorphometric assessment of the effects on bone formation and bone resorption. Sections are measured by using a camera lucida attachment to trace directly the microscopic image onto a digitizing plate. Bone changes are measured on sections cut 200 μm apart, over 4 adjacent 1×1 mm fields on both the injected and noninjected sides of the calvaria. New bone is identified by its characteristic woven structure, and osteoclasts and osteoblasts are identified by their distinctive morphology. Histomorphometry software (OsteoMeasure, Osteometrix, Inc., Atlanta) is used to process digitizer input to determine cell counts and measure areas or perimeters.
The results are reported as a measurement of total bone area (and % increase in area over vehicle control), as shown below.

[2] = Experiment 3, 8.88178E μg/ml (0.002193 μM lovastatin, 0.002087 μM fluvastatin)

## CC[C@H](C)C(=O)O[C@H]1C[C@@H](C)C=C2C=C[C@H](C)[C@H](CC[C@@H]3C[C@@H](O)CC(=O)O3)[C@H]21 [Lovastatin, lovastatin]
BMP-2 promoter
  dose-dependent stimulatory effect in the ABA assay: dose-dependent stimulatory effect
BMP-2 promoter; Experiment 1, 0.195312 μg/ml
  % 59-0008 Response: 22.840%
  Fold increase over negative control: 2.011 fold
BMP-2 promoter; Experiment 1, 0.390625 μg/ml
  % 59-0008 Response: 27.830%
  Fold increase over negative control: 2.232 fold
BMP-2 promoter; Experiment 1, 0.78125 μg/ml
  % 59-0008 Response: 35.220%
  Fold increase over negative control: 2.559 fold
BMP-2 promoter; Experiment 1, 1.5625 μg/ml
  % 59-0008 Response: 67.080%
  Fold increase over negative control: 3.970 fold
BMP-2 promoter; Experiment 1, 3.125 μg/ml
  % 59-0008 Response: 111.730%
  Fold increase over negative control: 5.947 fold
BMP-2 promoter; Experiment 1, 6.25 μg/ml
  % 59-0008 Response: 126.230%
  Fold increase over negative control: 6.589 fold
BMP-2 promoter; Experiment 1, 12.5 μg/ml
  % 59-0008 Response: 153.790%
  Fold increase over negative control: 7.809 fold
BMP-2 promoter; Experiment 1, 25 μg/ml
  % 59-0008 Response: 144.730%
  Fold increase over negative control: 7.408 fold
BMP-2 promoter; Experiment 1, 50 μg/ml
  % 59-0008 Response: −22.510%
  Fold increase over negative control: 0.003 fold
BMP-2 promoter; Experiment 1, 200 μg/ml
  % 59-0008 Response: −22.650%
  Fold increase over negative control: −0.003 fold
BMP-2 promoter; Experiment 3, 0.002842 μg/ml
  % 59-0008 Response: 1.050%
  Fold increase over negative control: 1.032 fold
BMP-2 promoter; Experiment 3, 0.009094 μg/ml
  % 59-0008 Response: 2.720%
  Fold increase over negative control: 1.083 fold
BMP-2 promoter; Experiment 3, 0.029103 μg/ml
  % 59-0008 Response: 1.550%
  Fold increase over negative control: 1.048 fold
BMP-2 promoter; Experiment 3, 0.093132 μg/ml
  % 59-0008 Response: 3.210%
  Fold increase over negative control: 1.099 fold
BMP-2 promoter; Experiment 3, 0.298023 μg/ml
  % 59-0008 Response: 10.860%
  Fold increase over negative control: 1.333 fold
BMP-2 promoter; Experiment 3, 0.953674 μg/ml
  % 59-0008 Response: 35.300%
  Fold increase over negative control: 2.083 fold
BMP-2 promoter; Experiment 3, 3.051757 μg/ml
  % 59-0008 Response: 103.260%
  Fold increase over negative control: 4.169 fold
BMP-2 promoter; Experiment 3, 9.765625 μg/ml
  % 59-0008 Response: 148.030%
  Fold increase over negative control: 5.543 fold
BMP-2 promoter; Experiment 3, 31.25 μg/ml
  % 59-0008 Response: 166.770%
  Fold increase over negative control: 6.118 fold
BMP-2 promoter; [2]
  % 59-0008 Response: 0.620%
  Fold increase over negative control: 1.019 fold
Neonatal mouse calvaria
  inducing bone formation, compared with BMP-2 and bFGF: as good as, or better than
Neonatal mouse calvaria; Experiment 3, 3 days
  New Bone Area: 8.2 mm^2 × 10^−3
  New Bone Area, % increase over vehicle control: 182%
  Osteoblast Number: 128 Obs/field
  Osteoblast Number, % increase over vehicle control: 152%
[1]; 0.1 mg/kg/day
  % increase in total bone area over vehicle control: 0%
  Total Bone Area: 162 μm^2
[1]; 1 mg/kg/day
  % increase in total bone area over vehicle control: 41%
  Total Bone Area: 237 μm^2
[1]; 5 mg/kg/day
  % increase in total bone area over vehicle control: 40%
  Total Bone Area: 235 μm^2
[1]; 10 mg/kg/day
  % increase in total bone area over vehicle control: 42%
  Total Bone Area: 239 μm^2
  bone stimulatory effect compared with 12.5 μg/kg/day bFGF: comparable
[1]; varying doses
  effect on total bone area: dose-dependent increase in total bone area

## CCC(C)(C)C(=O)O[C@H]1C[C@@H](C)C=C2C=C[C@H](C)[C@H](CC[C@@H]3C[C@@H](O)CC(=O)O3)[C@H]21 [Simvastatin, simvastatin]
BMP-2 promoter; Experiment 1, 0.195312 μg/ml
  % 59-0008 Response: 29.030%
BMP-2 promoter; Experiment 1, 0.390625 μg/ml
  % 59-0008 Response: 38.210%
BMP-2 promoter; Experiment 1, 0.78125 μg/ml
  % 59-0008 Response: 69.600%
BMP-2 promoter; Experiment 1, 1.5625 μg/ml
  % 59-0008 Response: 99.170%
BMP-2 promoter; Experiment 1, 3.125 μg/ml
  % 59-0008 Response: 135.610%
BMP-2 promoter; Experiment 1, 6.25 μg/ml
  % 59-0008 Response: 141.970%
BMP-2 promoter; Experiment 1, 12.5 μg/ml
  % 59-0008 Response: 131.300%
BMP-2 promoter; Experiment 1, 25 μg/ml
  % 59-0008 Response: 148.310%
BMP-2 promoter; Experiment 1, 50 μg/ml
  % 59-0008 Response: −22.950%
BMP-2 promoter; Experiment 1, 100 μg/ml
  % 59-0008 Response: −23.010%
BMP-2 promoter; Experiment 1, 200 μg/ml
  % 59-0008 Response: −22.960%
BMP-2 promoter; Experiment 2, 0.465820 μM, 0.195312 μg/ml
  % 59-0008 Response: 0.310%
BMP-2 promoter; Experiment 2, 0.931640 μM, 0.390625 μg/ml
  % 59-0008 Response: 2.600%
BMP-2 promoter; Experiment 2, 1.863281 μM, 0.78125 μg/ml
  % 59-0008 Response: 6.820%
BMP-2 promoter; Experiment 2, 3.726562 μM, 1.5625 μg/ml
  % 59-0008 Response: 19.670%
BMP-2 promoter; Experiment 2, 7.453125 μM, 3.125 μg/ml
  % 59-0008 Response: 51.660%
BMP-2 promoter; Experiment 2, 14.90625 μM, 6.25 μg/ml
  % 59-0008 Response: 104.640%
BMP-2 promoter; Experiment 2, 29.8125 μM, 12.5 μg/ml
  % 59-0008 Response: 152.290%
BMP-2 promoter; Experiment 2, 59.625 μM, 25 μg/ml
  % 59-0008 Response: 180.640%
BMP-2 promoter; Experiment 2, 119.25 μM, 50 μg/ml
  % 59-0008 Response: 189.430%
BMP-2 promoter; Experiment 2, 238.5 μM, 100 μg/ml
  % 59-0008 Response: 304.100%
BMP-2 promoter; Experiment 2, 477 μM, 200 μg/ml
  % 59-0008 Response: 222.180%
Neonatal mouse calvaria; Experiment 1, 3 days
  New Bone Area: 8.5 mm^2 × 10^−3
  New Bone Area, % increase over vehicle control: 77%
  Osteoblast Number: 156 Obs/field
  Osteoblast Number, % increase over vehicle control: 63%
Neonatal mouse calvaria; Experiment 1, 7 days
  New Bone Area: 17.4 mm^2 × 10^−3
  New Bone Area, % increase over vehicle control: 123%
  Osteoblast Number: 154 Obs/field
  Osteoblast Number, % increase over vehicle control: 68%
Neonatal mouse calvaria; Experiment 2, 3 days
  New Bone Area: 15.4 mm^2 × 10^−3
  New Bone Area, % increase over vehicle control: 285%
  Osteoblast Number: 154 Obs/field
  Osteoblast Number, % increase over vehicle control: 70%
Neonatal mouse calvaria; combination study, IBN (1 μM), 59-0328 0.1 μM alone
  New Bone Area: 5.1 ± 0.49 mm^2 × 10^−3
Neonatal mouse calvaria; combination study, IBN (1 μM), 59-0328 0.2 μM alone
  New Bone Area: 5.23 ± 0.89 mm^2 × 10^−3
Neonatal mouse calvaria; combination study, IBN (10 μM), 59-0328 0.1 μM alone
  New Bone Area: 4.25 ± 0.59 mm^2 × 10^−3
Neonatal mouse calvaria; combination study, IBN (10 μM), 59-0328 0.2 μM alone
  New Bone Area: 6.83 ± 1.54 mm^2 × 10^−3
[1]; 1 mg/kg/day
  % increase in total bone area over vehicle control: 2%
  Total Bone Area: 172 μm^2
[1]; 5 mg/kg/day
  % increase in total bone area over vehicle control: 20%
  Total Bone Area: 202 μm^2
[1]; 10 mg/kg/day
  % increase in total bone area over vehicle control: 46%
  Total Bone Area: 245 μm^2
[1]; mouse, in vivo
  increase in the number of osteoblasts: 1.5 fold
